Reference: patent US11564920B2, “5-heteroaryl-1H-pyrazol-3-amine derivative” (Sumitomo Pharma Co., Ltd., priority 2020, dated 2023)
“Also recorded” adds a separate entry of the source.

Legend:
CHK1 [1] = molecular target: T1, CHK1 (Homo sapiens (Human), UniProt O14757); experiment: CHK1 inhibitory activity test (IMAP TR-FRET); assay type: biochemical
Protocol: IMAP TR-FRET Screening Express Kit (R8160) was obtained from Molecular Devices. […] FAM-PKAtide (R7255, Molecular Devices) and FAM-Phospho-PKAtide (R7304, Molecular Devices) were admixed after dilution, and calibration standard systems for phosphorylation levels from 0 to 100% were created. 5 μL of a compound dissolved in a 0.4% DMSO solution was added to a 384 well plate. A compound study group to which 5 μL of each of CHK1, CHK1tide, and ATP was added, and a standard group to which 20 μL of standard was added were created, and subjected to a kinase reaction for 3 hours at 30° C. Subsequently, 60 μL of Binding Reagent (80% Buffer A, 20% Buffer B, 1:600 Binding Reagent, 1:400 Tb-Donor) was added for a binding reaction for 2 hours at room temperature.

[2] = Liposome encapsulation test of Example 1 (Test Example 6A); assay type: physicochemical
Protocol: 11.08 g of Presome ACD-1 (pre-prepared mixture consisting of hydrogenated soybean phosphatidylcholine, cholesterol, and distearoylphosphatidylethanolamine-methoxypolyethylene glycol 2000 at a mass ratio of 3:1:1, Nippon Fine Chemical Co., Ltd.) was weighed out, and 200 mL of 250 mM ammonium sulfate solution was added. The resulting mixture was heated to 65° C. and dispersed with a homogenizer (ULTRA-TURRAX, IKA) to obtain a crude liposome dispersion. […] The mixture was filtered through a 0.22 μm membrane filter to obtain an empty liposome solution with a total lipid concentration of 75 mM (75 μmol/mL).
The compound of Example 1 was weighed out. About 0.4 mL of 10 mM L-histidine buffer/10% sucrose solution (pH 6.5), about 0.1 mL of 0.1 mol/L hydrochloric acid, and 1 mL of the empty liposome solution were added, and the pH was adjusted to 6 to 6.5 by adding 1 mol/L hydrochloric acid. The mixture was heated for 30 minutes in a 65° C. water bath and then cooled with ice. The mixture was then filtered through a 0.22 μm membrane filter.
The liposome encapsulation ratio was calculated as follows. Unencapsulated compound concentration: The compound concentration was measured by HPLC for a solution prepared by adding 100 μL of aqueous 4% phosphoric acid solution to 100 μL of liposome solution. HPLC measurement conditions are the following.
Compound concentration in liposome solution: The liposome solution was diluted with a trifluoroacetic acid/water/methanol mixture (0.1/25/75) and was left standing for 10 minutes or longer at 5° C. The mixture was centrifuged for 5 minutes at 15,000×g to remove insolubles. The compound concentration in the supernatant was measured by HPLC. HPLC measurement conditions are the following. HPLC Conditions Column: Acquity UPLC BEH C18, 1.7 μm, 50×2.1 mm Column temperature: 40° C. Mobile phase: A: 0.1% trifluoroacetic acid containing water B: acetonitrile A/B (min): 95/5 (0)→0/100 (3.5)→0/100 (4)→95/5 (4.01)→95/5 (5) Flow rate: 0.8 mL/min Detection: UV visible detector, measured wavelength 254 nm injected volume: 5 μL
The encapsulation ratio and encapsulation efficiency were calculated by the following equations. Encapsulation ratio (%)=(compound concentration in liposome solution−unencapsulated compound concentration)×100/compound concentration in liposome solution Encapsulation efficiency (%)=(compound concentration in liposome solution−unencapsulated compound concentration)[…]

CHK1 [3] = molecular target: T1, CHK1; experiment: CHK1/CHK2 selectivity test (LabChip mobility shift); assay type: biochemical; conditions: read-out: IC50 value with respect to CHK1
CHK2 = CHK2 (Homo sapiens (Human), UniProt O96017); experiment: as above; assay type: biochemical; conditions: read-out: IC50 value with respect to CHK2
Protocol: A 4-fold concentration test compound solution was prepared with an assay buffer (20 mM HEPES, 0.01% Triton X-100, 1 mM DTT, pH 7.5). A 4-fold concentration substrate/ATP/metal solution was prepared with a kit buffer (20 mM HEPES, 0.01% Triton X-100, 5 mM DTT, pH 7.5).

hERG current = hERG current (Homo sapiens (Human), UniProt Q12809); experiment: hERG current blocking test; conditions: IC50 of hERG divided by IC50 of CHK1 inhibition of Test Example 1
Protocol: The test compounds were added to cultured hERG (human Ether-a-go-go Related Gene) gene stably expressing CHO cell line cells to achieve 0.27 to 100 μM.

ARKS/NUAK1 = ARKS/NUAK1 (Homo sapiens (Human), UniProt O60285); experiment: Kinase selectivity test (HotSpot Full Panel Kinase profiling); assay type: biochemical; conditions: 100 nM, ATP 10 μM; read-out: Residual activity (%) ARKS/NUAK1
Protocol: (§1) Buffer: 20 mM HEPES, pH 7.5, 10 mM MgCl2, 2 mM […] (as needed), 1 mM EGTA, 0.02% Brij35, 0.02 mg/mL BSA, 0.1 mM Na3VO4, 2 mM DTT, 1% DMSO
(§2) Compound concentration: 100 nM

CDK8/CYCLIN C = CDK8/CYCLIN C (Homo sapiens (Human), UniProt P49336); experiment: as above; assay type: biochemical; conditions: 100 nM, ATP 10 μM; read-out: Residual activity (%) CDK8/CYCLIN C
Protocol: as §1, §2

T1 sequence (O14757 whole entry): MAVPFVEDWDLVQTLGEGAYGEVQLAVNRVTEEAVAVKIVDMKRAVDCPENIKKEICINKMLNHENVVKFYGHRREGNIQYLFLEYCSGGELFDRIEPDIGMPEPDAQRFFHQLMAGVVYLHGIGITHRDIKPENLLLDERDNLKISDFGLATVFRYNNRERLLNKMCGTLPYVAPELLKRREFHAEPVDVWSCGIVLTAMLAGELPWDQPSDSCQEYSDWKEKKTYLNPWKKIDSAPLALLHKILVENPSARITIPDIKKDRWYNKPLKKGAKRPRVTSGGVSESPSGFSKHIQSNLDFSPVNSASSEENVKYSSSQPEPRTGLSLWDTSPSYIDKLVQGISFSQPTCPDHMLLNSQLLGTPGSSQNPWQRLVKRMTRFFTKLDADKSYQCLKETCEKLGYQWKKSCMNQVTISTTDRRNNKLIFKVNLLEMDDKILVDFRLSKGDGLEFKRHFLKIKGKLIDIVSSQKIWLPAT
Chain of CDK8/CYCLIN C (P49336 whole entry): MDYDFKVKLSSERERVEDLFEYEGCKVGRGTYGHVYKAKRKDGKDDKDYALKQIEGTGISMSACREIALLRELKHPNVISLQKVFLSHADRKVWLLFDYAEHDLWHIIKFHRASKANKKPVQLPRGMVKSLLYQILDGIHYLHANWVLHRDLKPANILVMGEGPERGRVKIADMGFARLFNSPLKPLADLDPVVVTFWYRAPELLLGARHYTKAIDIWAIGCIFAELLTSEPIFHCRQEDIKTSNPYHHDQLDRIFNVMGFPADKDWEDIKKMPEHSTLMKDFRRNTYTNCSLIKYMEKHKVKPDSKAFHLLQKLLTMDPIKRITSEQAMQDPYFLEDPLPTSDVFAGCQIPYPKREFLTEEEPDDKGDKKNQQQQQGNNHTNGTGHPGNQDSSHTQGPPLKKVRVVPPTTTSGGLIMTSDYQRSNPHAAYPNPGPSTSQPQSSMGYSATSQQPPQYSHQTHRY
Chain of CDK8/CYCLIN C (P24863 whole entry partner): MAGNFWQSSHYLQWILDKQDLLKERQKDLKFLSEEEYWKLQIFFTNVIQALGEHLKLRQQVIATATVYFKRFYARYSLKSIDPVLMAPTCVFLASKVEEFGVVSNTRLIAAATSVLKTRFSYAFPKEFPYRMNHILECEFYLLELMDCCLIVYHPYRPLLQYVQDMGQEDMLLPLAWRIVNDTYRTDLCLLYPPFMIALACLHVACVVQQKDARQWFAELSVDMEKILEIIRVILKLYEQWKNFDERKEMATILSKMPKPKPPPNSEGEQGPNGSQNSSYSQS
Chain of ARKS/NUAK1 (O60285 whole entry): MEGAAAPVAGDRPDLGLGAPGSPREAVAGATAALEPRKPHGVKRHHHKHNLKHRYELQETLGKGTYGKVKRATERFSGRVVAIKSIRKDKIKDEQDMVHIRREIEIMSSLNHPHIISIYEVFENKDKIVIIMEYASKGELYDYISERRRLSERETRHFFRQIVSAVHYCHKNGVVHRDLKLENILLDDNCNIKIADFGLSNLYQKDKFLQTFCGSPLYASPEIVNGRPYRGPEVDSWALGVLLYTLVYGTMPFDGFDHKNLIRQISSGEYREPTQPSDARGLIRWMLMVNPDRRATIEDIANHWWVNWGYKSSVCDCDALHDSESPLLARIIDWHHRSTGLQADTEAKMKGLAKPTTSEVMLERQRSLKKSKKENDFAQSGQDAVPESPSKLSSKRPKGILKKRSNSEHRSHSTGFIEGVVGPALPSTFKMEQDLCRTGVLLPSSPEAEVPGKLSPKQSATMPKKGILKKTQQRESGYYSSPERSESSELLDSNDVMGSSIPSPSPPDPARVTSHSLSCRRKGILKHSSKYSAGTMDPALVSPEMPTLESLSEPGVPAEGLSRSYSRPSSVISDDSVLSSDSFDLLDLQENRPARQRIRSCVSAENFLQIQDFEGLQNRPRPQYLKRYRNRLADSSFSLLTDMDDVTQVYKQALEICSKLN
Chain of hERG current (Q12809 whole entry): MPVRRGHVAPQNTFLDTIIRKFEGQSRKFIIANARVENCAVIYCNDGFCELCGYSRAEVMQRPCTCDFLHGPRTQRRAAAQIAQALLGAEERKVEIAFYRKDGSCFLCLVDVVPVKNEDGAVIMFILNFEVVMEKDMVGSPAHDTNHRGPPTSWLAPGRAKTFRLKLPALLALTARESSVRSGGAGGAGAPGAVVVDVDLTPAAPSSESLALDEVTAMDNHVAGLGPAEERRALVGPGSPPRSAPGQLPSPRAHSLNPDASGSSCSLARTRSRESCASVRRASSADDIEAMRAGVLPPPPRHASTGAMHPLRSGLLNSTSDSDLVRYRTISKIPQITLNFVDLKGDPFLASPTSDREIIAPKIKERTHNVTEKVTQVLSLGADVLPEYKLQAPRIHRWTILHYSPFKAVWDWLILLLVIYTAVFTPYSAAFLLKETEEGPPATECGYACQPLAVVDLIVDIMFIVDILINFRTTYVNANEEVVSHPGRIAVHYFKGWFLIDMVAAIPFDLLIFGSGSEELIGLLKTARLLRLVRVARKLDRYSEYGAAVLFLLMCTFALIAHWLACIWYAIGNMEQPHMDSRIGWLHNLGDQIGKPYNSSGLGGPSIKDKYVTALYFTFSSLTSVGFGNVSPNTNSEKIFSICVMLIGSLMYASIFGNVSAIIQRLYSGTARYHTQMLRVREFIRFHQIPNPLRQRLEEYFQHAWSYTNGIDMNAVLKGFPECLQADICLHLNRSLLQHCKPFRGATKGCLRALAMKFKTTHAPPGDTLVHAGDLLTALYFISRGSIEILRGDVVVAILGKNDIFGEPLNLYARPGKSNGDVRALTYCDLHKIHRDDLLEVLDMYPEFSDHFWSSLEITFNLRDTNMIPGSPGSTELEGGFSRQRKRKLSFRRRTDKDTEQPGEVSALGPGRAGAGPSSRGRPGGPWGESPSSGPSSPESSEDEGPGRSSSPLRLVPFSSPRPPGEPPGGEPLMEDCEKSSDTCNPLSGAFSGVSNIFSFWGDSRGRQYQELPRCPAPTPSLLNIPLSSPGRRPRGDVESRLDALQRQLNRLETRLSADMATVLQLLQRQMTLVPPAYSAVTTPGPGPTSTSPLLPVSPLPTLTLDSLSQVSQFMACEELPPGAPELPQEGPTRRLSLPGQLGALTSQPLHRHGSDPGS
Chain of CHK2 (O96017 whole entry): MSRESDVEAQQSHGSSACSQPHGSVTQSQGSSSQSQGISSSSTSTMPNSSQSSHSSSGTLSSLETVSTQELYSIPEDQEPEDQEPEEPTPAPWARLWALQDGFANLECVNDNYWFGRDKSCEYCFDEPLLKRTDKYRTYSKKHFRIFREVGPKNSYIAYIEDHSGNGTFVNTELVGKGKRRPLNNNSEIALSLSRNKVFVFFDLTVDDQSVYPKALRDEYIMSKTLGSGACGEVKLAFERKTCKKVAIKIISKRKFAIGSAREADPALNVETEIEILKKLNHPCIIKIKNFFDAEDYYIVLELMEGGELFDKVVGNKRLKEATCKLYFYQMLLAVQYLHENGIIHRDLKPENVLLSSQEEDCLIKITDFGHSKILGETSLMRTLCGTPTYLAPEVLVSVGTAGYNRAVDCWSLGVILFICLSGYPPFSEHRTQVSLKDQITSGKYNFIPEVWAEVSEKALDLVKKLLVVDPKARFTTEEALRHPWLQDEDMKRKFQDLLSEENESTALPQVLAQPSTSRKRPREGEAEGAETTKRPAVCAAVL

COc1ccnc(OCCCN)c1-c1cc(Nc2cnc(C#N)cn2)n[nH]1 [Example 1, 5-({5-[2-(3-aminopropoxy)-4-methoxypyridin-3-yl]-1H-pyrazol-3-yl}amino)pyrazine-2-carbonitrile]
CHK1 inhibitory activity relative to prexasertib (CHK1 [1]): ≥ 5 fold | IC50 (CHK1 [1]): < 0.1 nM | effect of suppressing CHK1 activity (in words) (CHK1 [1]; compared with prexasertib): more potent effect of suppressing CHK1 activity than prexasertib; also recorded: especially potently suppressing CHK1 activity | inhibition at 0.0001 µM (CHK1 [1]; read-out: CHK1 inhibition % at 0.1 nM): 55% | liposome encapsulation efficiency [2]: ≥ 90% | Encapsulation efficiency ([2]; concentration upon compound introduction 2 mg/mL): 91.3% | Encapsulation efficiency ([2]; concentration upon compound introduction 3 mg/mL): 91.6% | Encapsulation efficiency ([2]; concentration upon compound introduction 4 mg/mL): 92.2% | IC50 (CHK1 [3]): < 0.3 nM | IC50 (CHK2): 56.6 nM | hERG/CHK1 (hERG current): >115000

COc1cccc(OCCCN)c1-c1cc(Nc2cnc(C#N)cn2)n[nH]1 [Prexasertib, reference compound]
remaining activity at 0.1 µM (ARKS/NUAK1): 17.9% | remaining activity at 0.1 µM (CDK8/CYCLIN C): 18.1%
